Source: PMC6826616, “Topical 2′-Hydroxyflavanone for Cutaneous Melanoma” (Cancers, 2019)

Test system: B16-F0 cells
Assay: EGF-pHrodo endocytosis, B16-F0 (microscopy and flow cytometry)
Format: cell-based, mouse
Details: Rlip-antisense, Rlip-shRNA, or 10 µM 2HF for 24 h
Protocol: Figure 3 Effects of Rlip depletion on epidermal growth factor (EGF) endocytosis of mouse melanoma cells. Representative photomicrographs of Rlip-depleted B16-F0 and B16-F10 cells showing the inhibition of EGF-pHrodo endocytosis. […] Rlip was depleted by treating cells with Rlip-antisense, Rlip-shRNA, or 10 µM 2HF for 24 h as described in Materials and Methods section 4.8. Photographs were taken at identical exposures using 200× magnification.
Figure 4 Flow cytometry analysis of EGF-pHrodo endocytosis in control or Rlip depleted B16-F0 cells. Flow cytometry analysis of B16-F0 cells was performed 24 h after Rlip depletion by shRNA, RLIP76-antisense, or treatment with […] 2HF. Cells were stained with EGF-pHrodo. EGF-pHrodo-positive cells as shown on scatter plots were identified and gated based on forward and side scatter properties. The PE channel was used for red fluorescence to measure EGF-pHrodo positivity. […] Each flow cytometry analysis plot is a representative example of three independent experiments. […]
The effect of Rlip knockdown/depletion by shRNA, RLIP76-antisense (R508), or 2HF on endocytosis was studied in B16 melanoma cell lines. […] Slides were analyzed using a fluorescence microscope (Olympus America, Melville, NY, USA). […]
The effect of Rlip knockdown on endocytosis was further checked by flow cytometry. […] After 24 h, cells were trypsinized, washed with cold PBS, and counted. […]

Structure (SMILES): O=C1CC(c2ccccc2O)Oc2ccccc21 (stereo not shown) [2HF, 2′-hydroxyflavanone]
- EGF-pHrodo endocytosis (fluorescence microscopy): completely blocked
